Test results published in US20260283205A1, “ACYLATED DIHYDROCHALCONES, METHODS OF PRODUCTION AND USES THEREOF” (SYMRISE AG, priority 2023, published 2026).

Tested on: panel of five flavorists (n=5)
Test: Taste descriptors (scale 0-9) of sugar base with sweet tasting / sweet taste modulating substances, without (A) and with (B) compound 41 or 57
Type: in vivo
Conditions: for Mouthfeel (0-9), sample A / Lingering sweetness (0-9), sample A / Onset sweetness (0-9), sample A / Overall sweetness (0-9), sample A / Lingering sweetness (0-9), Δ (B-A) / Mouthfeel (0-9), Δ (B-A) / Onset sweetness (0-9), Δ (B-A) / Overall sweetness (0-9), Δ (B-A): scale 0-9; for Mouthfeel (0-9), sample A / Lingering sweetness (0-9), sample A / Onset sweetness (0-9), sample A / Overall sweetness (0-9), sample A: n=5; for Onset sweetness (0-9), A / Overall sweetness (0-9), A: samples (A): sugar base (5% sucrose+0.1% citric acid) + PH 25, HT 12, HC 50, RS 75, LHG 20, PD 3 or SG 60 mg/kg, without compound 41; for Onset sweetness (0-9), A: base alone 2.0; for Overall sweetness (0-9), A: base alone 3.0
Protocol: A sugar base (5% sucrose+0.1% citric acid) was provided. Further, the sweet tasting substances RS (20% Rubusoside), SG (90% steviol oligoglucosides), HC (8% Hesperetin dihydrochalcone), LHG (52% mogroside V) and the sweet taste modulating substances PD (>95% Phyllodulcin), HT (>85% Hesperetin) and PH (>98% Phloretin) were provided and added to the sugar base to produce different samples (A).
A dose of 2 mg/kg compound 41 or, respectively, 1.2 mg/kg compound 57 was added to the samples to obtain samples (B).
Different taste descriptors were compared between the respective samples (A) and (B) by a panel of five flavorists (n=5) using a scale of 0-9.
The panelists were asked to neutralize with tap water between each sample and the intensity of the descriptors of each sample were defined before tasting the next sample. The tasting of each RS, SG, HC, LHG, PD, HT or PH (samples (A)) were followed by the samples with added RS, SG, HC, LHG, PD, HT or PH+compound (41 or 57) (samples (B)) with each being compared to the intensities of the base.

[1] = compound 41 series, sample A: sugar base (5% sucrose+0.1% citric acid) + sample substance alone at the listed dose (PH 25, HT 12, HC 50, RS 75, LHG 20, PD 3, SG 60 mg/kg)
[2] = compound 41 series, sample A: sugar base + sample substance alone at the listed dose
[3] = compound 57 series, sample A: sugar base + sample substance alone at the listed dose
[4] = difference between sample B (+1.2 mg/kg compound 57) and sample A
[5] = difference between sample B (+2 mg/kg compound 41) and sample A

| Compound | Mouthfeel (0-9), sample A [1] | Lingering sweetness (0-9), sample A [2] | Lingering sweetness (0-9), sample A [3] | Mouthfeel (0-9), sample A [3] | Onset sweetness (0-9), sample A [3] | Overall sweetness (0-9), sample A [3] | Lingering sweetness (0-9), Δ (B-A) [4] | Mouthfeel (0-9), Δ (B-A) [4] | Onset sweetness (0-9), Δ (B-A) [4] | Overall sweetness (0-9), Δ (B-A) [4] | Lingering sweetness (0-9), Δ (B-A) [5] | Mouthfeel (0-9), Δ (B-A) [5] | Onset sweetness (0-9), A | Overall sweetness (0-9), A |
| --- | --- | --- | --- | --- | --- | --- | --- | --- | --- | --- | --- | --- | --- | --- |
| COc1ccc([C@@H]2CC(=O)c3c(O)cc(O)cc3O2)cc1O [HT, Hesperetin] | 3.5 | 0.0 | 0.0 | 3.5 | 2.5 | 3.5 | 2.0 | 0.5 | 1.0 | 1.5 | 1.0 | 0.5 | 2.5 | 3.5 |
| COc1ccc([C@H]2Cc3cccc(O)c3C(=O)O2)cc1O [PD, Phyllodulcin] | 4.0 | 1.0 | 1.0 | 3.5 | 2.5 | 4.0 | 0.5 | 1.0 | 0.5 | 1.0 | 1.0 | 0.5 | 2.5 | 4.0 |
| O=C(CCc1ccc(O)cc1)c1c(O)cc(O)cc1O [PH, Phloretin] | 4.0 | 0.0 | 0.0 | 3.5 | 2.5 | 3.5 | 1.5 | 0.5 | 0.5 | 1.0 | 1.0 | 0.5 | 3.0 | 4.0 |
